In patent US12534496B2, “Polymorphic forms of Cyclo (-His-Pro) and methods of use to treat kidney disease” (NovMetaPharma Co., Ltd., priority 2018, dated 2026):
Values joined by “and” are separate entries in the source; they are usually repeats but may differ in a detail not shown here. Identical values can stand only once. “Also recorded” adds a separate entry of the source.

Columns and labels:
Assay type in all cases: physicochemical
[1] = pH solubility assessment in buffers at 37 °C; conditions: 100 mg solid
Method: CHP patterns 1 and 2 were prepared for pH solubility assessment as follows: • 100 mg of CHP pattern 1 and pattern 2 were each weighed out into 4, 5 mL screw top glass vials; • 100 μL of a selected buffer, pre-heated to 37° C., was added to each vial; • Samples were heated to 37° C. in an incubator shaker for ca. 10 minutes after each volume of buffer and checked for sample dissolution.

[2] = Approximate solubility of CHP Pattern 1 by solvent addition technique
Method: The approximate solubility of CHP in 37 selected solvent systems (Table 13) was estimated by solvent addition technique. The following procedure was used: • Approximately 20 mg of CHP Pattern 1 was weighed out into each of 37vials. • Each solvent/solvent mixture was added to the appropriate vial in 5 volume aliquots (100 μL) until dissolution was observed or a maximum of 2 mL solvent was added. • In between additions, the sample was heated to 40° C. to check for dissolution at elevated temperature. • If 2 mL of solvent was added without dissolution of the material, solubility was calculated to be below 10 mg/mL. • After solvent addition, all 37 vials were placed in a fridge to crash cool between 2-8° C. for ca. 18 hours. • Any solids present were isolated by centrifuge filtration and analyzed by XRPD (where material amount allowed). • Where no solids were produced, vials were uncapped and left to evaporate at ambient temperature. • Any solids present were analyzed by XRPD (where material amount allowed).

[3] = pKa analysis via potentiometric acid/base titration
Method: pKa analysis was carried out on Pattern 1 via a potentiometric technique which is acid/base titration to determine the pKa point.

[4] = GMP stability study of CHP anhydrate and CHP hydrate under accelerated conditions (total impurities); conditions: for Growth of total Impurities: 40 °C/75% RH
Method: CHP anhydrate (Pattern 1) and hydrate (Pattern 2) compounds were manufactured under GMP conditions. A stability study for the CHP anhydrate compound was conducted under ccelerated conditions (40±5° C./75±5% RH) for six months and room temperature conditions (25±5° C./60±5% RH) for 12 months. A further stability study for the CHP hydrate compound was conducted under accelerated conditions (40±5° C./75±5% RH) for 6 months (Table 18).

[5] = Solution state chemical stability in water/acetone and EtOH/water/MtBE (HPLC purity); conditions: 10 mg/ml; for Observation: up to 20 h
Method: Solution state chemical stability of the compound was studied in different solvent systems at different temperatures (Table 4). The solution was held at 50° C. and 80° C., and purity of the solution was tracked. The compound was generally stable for at least 20 hours.

[6] = Dynamic vapor sorption (DVS) at 25 °C with post-DVS XRPD
Method: DVS was carried out by placing an approximately 10-20 mg sample into a mesh vapour sorption balance pan and loaded into a DVS Intrinsic Dynamic Vapour Sorption Balance by Surface Measurement Systems. The sample was subjected to a ramping profile from 40 to 90% relative humidity (RH) at 10% increments, maintaining the sample at each step until a stable weight had been achieved (dm/dt 0.004%, minimum step length 30 minutes, maximum step length 500 minutes) at 25° C. After completion of the sorption cycle, the sample was dried using the same procedure to 0% RH and then a second sorption cycle back to 40% RH. Two cycles were performed. The weight change during the sorption/desorption cycles were plotted, allowing for the hygroscopic nature of the sample to be determined. XRPD analysis was then carried out on any solid retained.
Approximately, 10-20 mg of sample was placed into a mesh vapor sorption balance pan and loaded into a DVS Intrinsic dynamic vapor sorption balance by Surface Measurement Systems. The sample was subjected to a ramping profile from 40-90% relative humidity (RH) at 10% increments, maintaining the sample at each step until a stable weight had been achieved (dm/dt 0.004%, minimum step length 30 minutes, maximum step length 500 minutes) at 25° C. After completion of the sorption cycle, the sample was dried using the same procedure to 0% RH and then a second sorption cycle back to 40% RH. Two cycles were performed. The weight change during the sorption/desorption cycles were plotted, allowing for the hygroscopic nature of the sample to be determined. XRPD analysis was then carried out on any solid retained.

## O=C1N[C@@H](Cc2cnc[nH]2)C(=O)N2CCC[C@@H]12 [Pattern 1, Cyclo (-His-Pro)]
[1]; buffer pH 1
  μL for Dissolution at 37° C.: 300 µL
[1]; buffer pH 4
  μL for Dissolution at 37° C.: 300 µL
[1]; buffer pH 6.8
  μL for Dissolution at 37° C.: 300 µL
[1]; buffer pH 7.2
  μL for Dissolution at 37° C.: 300 µL
[2]; THF
  Approximate Solubility: ≤ 10000 µg/mL
[2]; acetone
  Approximate Solubility: ≤ 10000 µg/mL
[2]; acetonitrile
  Approximate Solubility: ≤ 10000 µg/mL
[2]; water
  Approximate Solubility: ≥ 200000 µg/mL
[2]; water:acetone [90:10]
  Approximate Solubility: ≥ 200000 µg/mL
[3]
  pKa: 6.4 and 6.38
[4]; 0M
  Growth of total Impurities: 0%
[4]; 1M
  Growth of total Impurities: 0%
[4]; 3M, listed as CHP anhydrate (pattern 1)
  Growth of total Impurities: 0.27%
[4]; 6M, listed as CHP anhydrate (pattern 1)
  Growth of total Impurities: 0.53%
[4]; during the stability study
  Water content reached by moisture absorption: 7%
[5]; (EtOH:H2O = 9:1):MTBE = 1:3 (v/v), 50 °C, 0 h
  Purity (a %): 99.82%
[5]; (EtOH:H2O = 9:1):MTBE = 1:3 (v/v), 50 °C, 2 h
  Purity (a %): 99.77%
[5]; (EtOH:H2O = 9:1):MTBE = 1:3 (v/v), 50 °C, 20 h
  Purity (a %): 99.82%
[5]; (EtOH:H2O = 9:1):MTBE = 1:3 (v/v), 50 °C
  Observation: No change
[5]; EtOH:H2O = 9:1 (v/v), 50 °C, 0 h
  Purity (a %): 99.76%
[5]; EtOH:H2O = 9:1 (v/v), 50 °C, 2 h
  Purity (a %): 99.86%
[5]; EtOH:H2O = 9:1 (v/v), 50 °C, 20 h
  Purity (a %): 99.69%
[5]; EtOH:H2O = 9:1 (v/v), 50 °C
  Observation: No change
[5]; H2O, 80 °C, 0 h
  Purity (a %): 99.82%
[5]; H2O, 80 °C, 2 h
  Purity (a %): 99.77%
[5]; H2O, 80 °C, 20 h
  Purity (a %): 99.82%
[5]; H2O, 80 °C
  Observation: No change
[5]; H2O:Acetone = 0.5:9.5 (v/v), 50 °C, 0 h
  Purity (a %): 99.77%
[5]; H2O:Acetone = 0.5:9.5 (v/v), 50 °C, 2 h
  Purity (a %): 99.72%
[5]; H2O:Acetone = 0.5:9.5 (v/v), 50 °C, 20 h
  Purity (a %): 99.73%
[5]; H2O:Acetone = 0.5:9.5 (v/v), 50 °C
  Observation: No change
[6]; after DVS cycles at 25 °C
  Post-DVS XRPD form: a new form, assigned as pattern 2; also recorded: re-crystallized to pattern 2
[6]; between 0 and 90% RH, 25 °C
  DVS maximum uptake after conversion to Pattern 2: 0.8 wt %
[6]; from 60% RH to 90% RH, 25 °C
  DVS weight gain (change in mass): 6.3%
